How the values were obtained:
Assay type in all cases: functional, cell-based
[1] = Cytotoxicity against human VP229 cells measured after 8 days; conditions: VP229, 192 h
[2] = Cytotoxicity against human RERF-GC-1B cells measured after 8 days; conditions: 192 h
ACHN = assay: Cytotoxicity against human ACHN cells measured after 8 days; conditions: 192 h
[3] = Cytotoxicity against mouse 4T1-Luc cells measured after 8 days; conditions: 192 h
[4] = Cytotoxicity against human Hs 852.T cells measured after 8 days; conditions: 192 h
MPC-11 = assay: Cytotoxicity against mouse MPC-11 cells measured after 8 days; conditions: MPC-11, 192 h
[5] = Cytotoxicity against mouse AE17 cells measured after 8 days; conditions: AE17, 192 h
[6] = Cytotoxicity against mouse AB22 cells measured after 8 days; conditions: AB22, 192 h
[7] = Cytotoxicity against human HCC60 cells measured after 8 days; conditions: HCC60, 192 h
KM12 = assay: Cytotoxicity against human KM12 cells measured after 8 days; conditions: KM12, 192 h
[8] = Cytotoxicity against human NCE-G 28T cells measured after 8 days; conditions: 192 h
CT26.WT = assay: Cytotoxicity against mouse CT26.WT cells measured after 8 days; conditions: 192 h
[9] = Cytotoxicity against human KMS-26 cells measured after 8 days; conditions: KMS-26, 192 h
Panc1005 = assay: Cytotoxicity against human Panc1005 cells measured after 8 days; conditions: Panc1005, 192 h
CAKI-2 = assay: Cytotoxicity against human CAKI-2 cells measured after 8 days; conditions: CAKI-2, 192 h
[10] = Cytotoxicity against human HCC2885 cells measured after 8 days; conditions: HCC2885, 192 h
PANC-03-27 = assay: Cytotoxicity against human Panc 03.27 cells measured after 8 days; conditions: PANC-03-27, 192 h
[11] = Cytotoxicity against human Mel 928 cells measured after 8 days; conditions: Mel 928, 192 h
COLO-679 = assay: Cytotoxicity against human COLO-679 cells measured after 8 days; conditions: COLO-679, 192 h
MC-38 = assay: Cytotoxicity against mouse MC38 ovalbumin cells measured after 8 days; conditions: MC-38, 192 h
IMR-32 = assay: Cytotoxicity against human IMR-32 cells measured after 8 days; conditions: IMR-32, 192 h
L-363 = assay: Cytotoxicity against human L-363 cells measured after 8 days; conditions: L-363, 192 h
[12] = Cytotoxicity against human ECC-1 cells measured after 8 days; conditions: ECC-1, 192 h
SK-HEP1 = assay: Cytotoxicity against human SK-HEP1 cells measured after 8 days; conditions: SK-HEP1, 192 h
[13] = Cytotoxicity against human KNS-81 cells measured after 8 days; conditions: KNS-81, 192 h
MOLM-13 = assay: Cytotoxicity against human MOLM-13 cells measured after 8 days; conditions: MOLM-13, 192 h
FaDu = assay: Cytotoxicity against human FaDu cells measured after 8 days; conditions: 192 h
SW1990 = assay: Cytotoxicity against human SW1990 cells measured after 8 days; conditions: SW1990, 192 h
[14] = Cytotoxicity against human HCC364 cells measured after 8 days; conditions: HCC364, 192 h
[15] = Cytotoxicity against human Panc 02.03 cells measured after 8 days; conditions: Panc 02.03, 192 h
[16] = Cytotoxicity against human TCC-Pan2 cells measured after 8 days; conditions: TCC-Pan2, 192 h
[17] = Cytotoxicity against mouse LTPA cells measured after 8 days; conditions: 192 h
[18] = Cytotoxicity against human KPP14388 cells measured after 8 days; conditions: KPP14388, 192 h
[19] = Cytotoxicity against human 4498-16820 Mel-BR1 cells measured after 8 days; conditions: 4498-16820 Mel-BR1, 192 h
Capan-2 = assay: Cytotoxicity against human Capan-2 cells measured after 8 days; conditions: Capan-2, 192 h
COLO-684 = assay: Cytotoxicity against human COLO-684 cells measured after 8 days; conditions: COLO-684, 192 h
[20] = Cytotoxicity against human KPP-1 cells measured after 8 days; conditions: KPP-1, 192 h
SK-MEL-2 = assay: Cytotoxicity against human SK-MEL-2 cells measured after 8 days; conditions: SK-MEL-2, 192 h
[21] = Cytotoxicity against human NCI-H196 cells measured after 8 days; conditions: NCI-H196, 192 h
SH-SY5Y = assay: Cytotoxicity against human SH-SY5Y cells measured after 8 days; conditions: 192 h
HepG2 = assay: Cytotoxicity against human HepG2 cells measured after 8 days; conditions: HepG2, 192 h
[22] = Cytotoxicity against human TC71 cells measured after 8 days; conditions: TC-71, 192 h
[23] = Cytotoxicity against human NCI-H2369 cells measured after 8 days; conditions: NCI-H2369, 192 h
EFE-184 = assay: Cytotoxicity against human EFE-184 cells measured after 8 days; conditions: EFE-184, 192 h
OCI-AML-3 = assay: Cytotoxicity against human OCI-AML-3 cells measured after 8 days; conditions: OCI-AML-3, 192 h
BT-474 = assay: Cytotoxicity against human BT-474 cells measured after 8 days; conditions: BT-474, 192 h
PANC-1 = assay: Cytotoxicity against human PANC-1 cells measured after 8 days; conditions: PANC-1, 192 h
[24] = Cytotoxicity against human HCC597 cells measured after 8 days; conditions: HCC597, 192 h
[25] = Cytotoxicity against human GR-M cells measured after 8 days; conditions: 192 h
[26] = Cytotoxicity against mouse KLN205 cells measured after 8 days; conditions: KLN205, 192 h
[27] = Cytotoxicity against human JJ012 cells measured after 8 days; conditions: JJ012, 192 h
[28] = Cytotoxicity against human PK-59 cells measured after 8 days; conditions: PK-59, 192 h
RPMI-8226 = assay: Cytotoxicity against human RPMI-8226 cells measured after 8 days; conditions: RPMI-8226, 192 h
[29] = Cytotoxicity against human ASH-3 cells measured after 8 days; conditions: ASH-3, 192 h
U-266 = assay: Cytotoxicity against human U266B1 cells measured after 8 days; conditions: U-266, 192 h
CHL-1 = assay: Cytotoxicity against human CHL-1 cells measured after 8 days; conditions: CHL-1, 192 h
[30] = Cytotoxicity against human C32TG cells measured after 8 days; conditions: 192 h
[31] = Cytotoxicity against human RKOE6 cells measured after 8 days; conditions: RKOE6, 192 h
[32] = Cytotoxicity against human SCLC-22H cells measured after 8 days; conditions: 192 h
OVCAR-3 = assay: Cytotoxicity against human OVCAR-3 cells measured after 8 days; conditions: OVCAR-3, 192 h
[33] = Cytotoxicity against human SUM52PE cells measured after 8 days; conditions: 192 h
8305C = assay: Cytotoxicity against human 8305C cells measured after 8 days; conditions: 192 h
LN-229 = assay: Cytotoxicity against human LN-229 cells measured after 8 days; conditions: LN-229, 192 h

## C/C=C/Cn1cc(-c2ccc(C(C)(C)O)cc2OC)c2cc[nH]c2c1=O
[1]
  IC50: 20 µM
[2]
  IC50: 20 µM
ACHN
  IC50: 20 µM
[3]
  IC50: 20 µM
[4]
  IC50: 20 µM
MPC-11
  IC50: 16.5 µM
[5]
  IC50: 20 µM
[6]
  IC50: 20 µM
[7]
  IC50: 20 µM
KM12
  IC50: 20 µM
[8]
  IC50: 20 µM
CT26.WT
  IC50: 20 µM
[9]
  IC50: 2.61 µM
Panc1005
  IC50: 20 µM
CAKI-2
  IC50: 20 µM
[10]
  IC50: 20 µM
PANC-03-27
  IC50: 20 µM
[11]
  IC50: 20 µM
COLO-679
  IC50: 20 µM
MC-38
  IC50: 20 µM
IMR-32
  IC50: 20 µM
L-363
  IC50: 20 µM
[12]
  IC50: 20 µM
SK-HEP1
  IC50: 20 µM
[13]
  IC50: 20 µM
MOLM-13
  IC50: 6.19 µM
FaDu
  IC50: 20 µM
SW1990
  IC50: 20 µM
[14]
  IC50: 20 µM
[15]
  IC50: 20 µM
[16]
  IC50: 20 µM
[17]
  IC50: 20 µM
[18]
  IC50: 20 µM
[19]
  IC50: 15.5 µM
Capan-2
  IC50: 20 µM
COLO-684
  IC50: 20 µM
[20]
  IC50: 20 µM
SK-MEL-2
  IC50: 20 µM
[21]
  IC50: 20 µM
SH-SY5Y
  IC50: 20 µM
HepG2
  IC50: 20 µM
[22]
  IC50: 13.9 µM
[23]
  IC50: 20 µM
EFE-184
  IC50: 20 µM
OCI-AML-3
  IC50: 20 µM
BT-474
  IC50: 20 µM
PANC-1
  IC50: 20 µM
[24]
  IC50: 20 µM
[25]
  IC50: 20 µM
[26]
  IC50: 20 µM
[27]
  IC50: 20 µM
[28]
  IC50: 20 µM
RPMI-8226
  IC50: 20 µM
[29]
  IC50: 20 µM
U-266
  IC50: 20 µM
CHL-1
  IC50: 15.2 µM
[30]
  IC50: 20 µM
[31]
  IC50: 20 µM
[32]
  IC50: 20 µM
OVCAR-3
  IC50: 20 µM
[33]
  IC50: 20 µM
8305C
  IC50: 20 µM
LN-229
  IC50: 20 µM

## C/C=C/Cn1cc(-c2ccc(C(=O)N3CCOCC3)cc2)c2cc[nH]c2c1=O
[1]
  IC50: 20 µM
[2]
  IC50: 20 µM
ACHN
  IC50: 20 µM
[3]
  IC50: 20 µM
[4]
  IC50: 20 µM
MPC-11
  IC50: 10.7 µM
[5]
  IC50: 18.1 µM
[6]
  IC50: 20 µM
[7]
  IC50: 20 µM
KM12
  IC50: 20 µM
[8]
  IC50: 20 µM
CT26.WT
  IC50: 20 µM
[9]
  IC50: 2.11 µM
Panc1005
  IC50: 20 µM
CAKI-2
  IC50: 20 µM
[10]
  IC50: 20 µM
PANC-03-27
  IC50: 20 µM
[11]
  IC50: 20 µM
COLO-679
  IC50: 20 µM
MC-38
  IC50: 16.7 µM
IMR-32
  IC50: 20 µM
L-363
  IC50: 10.4 µM
[12]
  IC50: 20 µM
SK-HEP1
  IC50: 20 µM
[13]
  IC50: 20 µM
MOLM-13
  IC50: 9.33 µM
FaDu
  IC50: 20 µM
SW1990
  IC50: 20 µM
[14]
  IC50: 20 µM
[15]
  IC50: 20 µM
[16]
  IC50: 20 µM
[17]
  IC50: 20 µM
[18]
  IC50: 20 µM
[19]
  IC50: 20 µM
Capan-2
  IC50: 20 µM
COLO-684
  IC50: 20 µM
[20]
  IC50: 10.9 µM
SK-MEL-2
  IC50: 20 µM
[21]
  IC50: 20 µM
SH-SY5Y
  IC50: 20 µM
HepG2
  IC50: 20 µM
[22]
  IC50: 11.1 µM
[23]
  IC50: 20 µM
EFE-184
  IC50: 20 µM
OCI-AML-3
  IC50: 11.3 µM
BT-474
  IC50: 20 µM
PANC-1
  IC50: 20 µM
[24]
  IC50: 20 µM
[25]
  IC50: 20 µM
[26]
  IC50: 20 µM
[27]
  IC50: 20 µM
[28]
  IC50: 20 µM
RPMI-8226
  IC50: 20 µM
[29]
  IC50: 20 µM
U-266
  IC50: 20 µM
CHL-1
  IC50: 15.2 µM
[30]
  IC50: 20 µM
[31]
  IC50: 20 µM
[32]
  IC50: 20 µM
OVCAR-3
  IC50: 20 µM
[33]
  IC50: 20 µM
8305C
  IC50: 20 µM
LN-229
  IC50: 20 µM
